Measurements from PMC7915858, “Complementary Effects of Carbamylated and Citrullinated LL37 in Autoimmunity and Inflammation in Systemic Lupus Erythematosus” (International Journal of Molecular Sciences, 2021).

Tests used:
pDCs = assay: IFN-α production by purified pDCs stimulated with peptide-DNA complexes; format: cell-based, human; conditions: peptide without DNA, 24 h, ELISA
Procedure: Buffy-coats from HD were from Centro Trasfusionale, Policlinico Umberto I, Rome, IT. After separation of mononuclear cells by Ficoll centrifugation, pDCs were purified as described, by using the Diamond Plasmacytoid Dendritic Cell Isolation Kit (Miltenyi Biotec, Bergisch Gladbach, Germany) to obtain 99% purity. Purified pDCs were seeded into 96-well round-bottom plates at 3.5/5 × 10^4 cells per well in 200 μL RPMI 1640 (GIBCO), supplemented with 10% fetal calf serum (FCS), 1% Hepes and 1% sodium pyruvate. LL37, cit-LL37 and carb-LL37 were premixed with total human genomic DNA (extracted from PBMC of HD, see below) (15 μg/mL). After 15 min incubation at room temperature the mix was added to the pDC cultures. IFN-α in supernatants was measured by ELISA (MabTech, Stockholm, Sweden), after 24 h (according to the manufacturer’s instructions).
Human DNA was extracted from PBMCs, as reported and was fragmented by sonication. Five milligrams of DNA in a volume of 300 μL were fragmented using the Sonics Vibra Cell sonicator (Newtown, CT, USA), with the following settings: 2, 4 and 10 sonication cycles (30 s on, 30 s off, in ice) to obtain DNA fragment sizes between 100 and 1000 bp. The resulting size distribution was controlled by 2% agarose gel electrophoresis.

[1] = system: native LL37-P1-specific T-cells (HLA-DRB5*0101 tetramer); assay: Peptide-MHC-tetramer staining of T-cells after PBMC stimulation; format: cell-based, human; conditions: 6 days stimulation, CD38hi CD4 T-cells
Procedure: Peptide-MHC-tetramers were from ImmunAware (Denmark). Staining was performed for 40 min with 1microL of tetramer suspension at 37 °C, followed by staining for CD4 (4 °C, 20 min), without washing. After incubation with anti-CD4 antibody, cells were washed, resuspended in PBS and kept at 4 °C. Before flow cytometry-acquisition, cells were labeled with PercP-conjugated 7-AAD to exclude dead cells. The peptide-MHC-tetramers used in this study are: the HLA-DR15-P1: tetramer of HLA-DRB1*1501 LLGDFFRKSKEKIGK (corresponding to the first aa at the NH2-term of the mature native LL37), (PE-conjugated) and the control peptide-MHC-tetramer called DR15-ctr: tetramer of HLA-DRB1*1501 […]1-169-185 (PE-conjugated). The other couple of peptide-MHC-tetramers used were HLA-DRB5*0101 loaded with the same LL37 epitope as above and the control tetramer HLA-DRB5*0101 loaded with the control epitope PVSKMRMATPLLMQA (CLIP-derived).

SLE CD4 T-cells = assay: T-cell proliferation (BrdU incorporation, flow cytometry); format: cell-based, human
Procedure: (§1) PBMCs were purified from EDTA-treated blood, on Ficoll-Hypaque (Pharmacia Fine Chemicals, Uppsala, Sweden) and were incubated (10^5 cells/well) in 96-well-flat-bottom-microplates (BD) in T-cell-medium (RPMI 1640, 10% heat-inactivated human serum, HS, Gibco), 2 mM L-glutamine, 10 U/mL penicillin and 100 μg/mL streptomycin), with/without peptides. We performed assays on fresh cells, within 1-to-3 h from collection or on PBMCs frozen in 90% FCS−10% DMSO, whose viability we assessed by Trypan blue exclusion, with an inverted microscope. Recovery of live cells was between 65 and 85% of the frozen number. At day 3 and 5, BrdU was added (1 μg/mL). BrdU-incorporation was detected by APC-labeled anti-BrdU antibody (BD Pharmingen), after surface staining for CD4, CD3, CD8 and analyzed by flow cytometry (Gallios, BeckmanCoulter, Brea, CA, USA). Internal control for T-cell viability and proliferation was PHA treatment (2 μg/mL). SI for proliferation was calculated by dividing percent of BrdU-staining in the presence of each peptide antigen (LL37, carb-LL37, cit-LL37, LL37 reverse, REV; cit-LL37 reverse, cit-REV; carb-LL37 reverse, carb-REV) by the percent obtained in the untreated cells. SI for proliferation was considered positive when the values of percent of BrdU positive cells was three times higher than the values obtained with the control peptides (SI > 3). Assays were repeated twice with each patient. In rare cases in which background proliferation (culture with REV, cit-REV, carb-REV), exceeded antigen-specific proliferation (that is response to LL37, carb-LL37, cit-LL37), the assay was repeated three times. Concomitant phenotype analysis of LL37-responder T-cells included staining for CD3, CD4, CD8, CXCR5 (CXCR5 was assessed on BrdU/CD3/CD4-positive cells).
(§2) Differences between mean values were assessed by Wilcoxon’s matched-pair signed rank test, to compare responses to antigens and control antigens in the same donor. We used Mann-Whitney test for comparison of T-cell and antibody responses between groups of patients and HD. Statistical significance was set at p < 0.05. Correlation analyses were performed by Spearman’s rank-correlation test. Data were analyzed by GraphPad Prism 7.0 or SPSS software.

SLE serum antibody = assay: ELISA for antibody reactivity of SLE sera to carb-/cit-/native LL37 and carb-REV, and its correlation with SLEDAI; format: binding, human
Procedure: Anti-native LL37/cit-LL37/carb-LL37 antibodies were measured as described. Briefly, 96-well flat-bottom plates (Non-Binding surface polystyrene, Corning, Glendale, AZ USA) were coated with 2 μg/mL of native LL37, cit-LL37 or carb-LL37 in carbonate buffer (0.1 M NaHCHO3, pH 9) for 2 h (or overnight) and washed four times with PBS plus 0.1% Tween-20. This washing buffer was used for washing at all steps. The blocking buffer containing 2% bovine serum albumin (BSA, Sigma) in PBS was used for at least 1 h (or overnight) to saturate unspecific binding sites. After washing, sera were diluted at various concentrations (usually at 1:100 or 1:200) in PBS + 2% BSA followed by 1 h incubation with a horseradish peroxidase–conjugated (HRP) goat anti-human IgG (Sigma-Aldrich), diluted 1:10,000 in PBS. The color was developed for 5 min with 3,3′,5,5′-tetramethylbenzidine (TMB) substrate (Sigma-Aldrich). The reaction was stopped by adding 50 μL of 2 N H2SO4 and absorbance determined at 450 nm with a reference wavelength of 540 nm. Responses were considered positive when the OD measured exceeded the mean OD values measured in healthy donors’ plasma plus two standard deviations (+2SD), calculated on the HD group values, as described.
as §2

memory B-cells = conditions: cited from earlier work
Description: LL37 is able to activate innate immune cells and B-cells after forming complexes with nucleic acids in a special molecular conformation, suitable for TLR stimulation. PDCs, as well as B-cells, are both activated by LL37-DNA or LL37-RNA complexes.

SLE CD4 T-cells (CXCR5) = assay: CXCR5 (TFH marker) expression on stimulated CD4 T-cells, flow cytometry; format: cell-based, human; conditions: representative plot
Description: Antibodies to CD4, CD8, CD3 conjugated with various fluorochromes (FITC, phycoerythrin (PE), peridinin-chlorophyll-protein (PerCp), allophycocyanin (APC), PE-Cy7) were from BD Biosciences or eBiosciences (San Diego, CA). For further LL37-specific T-cell characterization and B-cell characterization we used: APC-Cy7-CXCR5 (FAB190), APC or PE-CD38, CD19, CD20, CD27, antibodies, purchased from BD Biosciences, eBiosciences, Novus Biologicals (Littleton, CO), R&D (Minneapolis, MN). Appropriate isotype-matched controls were purchased from the same companies. PerCp-7-AAD was from BD Pharmingen, DAPI from Invitrogen (Thermo Fisher, Carlsbad, CA, USA).
as §1

LLGDFFRKSKEKIGKEFKRIVQRIKDFLRNLVPRTES [LL37, mature human cathelicidin antimicrobial peptide, COOH-terminal part (res. 134–170), purchased from Proteogenix]
IFN-α response of pDCs to peptide alone (pDCs): no IFN-α response | Control (Ctr-B5) tetramer positive T-cells ([1]; Ctr-B5 tetr, lower panels Figure S6): 0.2% | LL37-specific T-cells (LL37-B5 tetramer positive) ([1]; LL37-B5 tetr, upper panels Figure S6): 4.27% | SLE patients responding by T-cell proliferation (SLE CD4 T-cells; BrdU, positive if SI > 3, carb-LL37 8 of 25, native LL37 17 of 31, cit-LL37 16 of 31 SLE patients): 55% | Antibody reactivity in SLE patients with renal damage versus without renal damage (SLE serum antibody; ELISA, N=6 with and N=44 without renal damage, Mann-Whitney, Figure S3 panel a P 0.047): non-significant anti-cit- and anti-native-LL37 antibody increase | Correlation of antibody reactivity with SLEDAI (SLE serum antibody; Spearman): both responses also correlated with SLEDAI | Stimulation of memory B-cells to mature into plasma cells, LL37-DNA complexes (memory B-cells): able to stimulate memory B-cells to mature into plasma cells

SETRPVLNRLFDK*IRQVIRKEFEK*GIK*EK*SK*RFFDGLL* [carb-REV, control carbamylated reverse (REV) LL37, reference compound]
CXCR5-positive cells among total CD3+CD4+ cells (SLE CD4 T-cells (CXCR5); Figure S5b left panels): 3.28% | CXCR5-positive cells among CD3+CD4+BrdU+ cells (SLE CD4 T-cells (CXCR5); Figure S5b middle panels): 8.76% | CXCR5-positive cells among CD3+CD4+BrdU- cells (SLE CD4 T-cells (CXCR5); Figure S5b right panels): 3.26% | BrdU-positive CD3+CD4+ T-cells (SLE CD4 T-cells; BrdU staining, representative zebra plot, Figure S5a): 5.35% | SLE patients showing an antibody response to the antigen (SLE serum antibody; ELISA, 2 μg/mL coated antigen, sera 1:100 or 1:200, OD 450 nm, positive: OD > mean HD + 2SD, carb-LL37 28 of 45, carb-REV 8 of 47 SLE patients): 17% | SLE serum antibody reactivity (OD) compared to healthy donors (SLE serum antibody; ELISA, OD, Mann-Whitney's test): also significant, as compared to response of HD but significantly lower than the response to carb-LL37
